One compound from patent publication US20090197872A1 (priority 2006, published 2009) can be followed below.

Counter-ions that a name gives are not always drawn.

For the test, the target named is T1, α7-subtype of nicotinic receptors (Rattus norvegicus, UniProt Q05941).
T1 construct: from tissue; host or cells: rat brain
Kind of test: biochemical. Particulars: read-out: Inhibition of 3H-α-Bungarotoxine Binding IC50.

T1 sequence (Q05941 23-502): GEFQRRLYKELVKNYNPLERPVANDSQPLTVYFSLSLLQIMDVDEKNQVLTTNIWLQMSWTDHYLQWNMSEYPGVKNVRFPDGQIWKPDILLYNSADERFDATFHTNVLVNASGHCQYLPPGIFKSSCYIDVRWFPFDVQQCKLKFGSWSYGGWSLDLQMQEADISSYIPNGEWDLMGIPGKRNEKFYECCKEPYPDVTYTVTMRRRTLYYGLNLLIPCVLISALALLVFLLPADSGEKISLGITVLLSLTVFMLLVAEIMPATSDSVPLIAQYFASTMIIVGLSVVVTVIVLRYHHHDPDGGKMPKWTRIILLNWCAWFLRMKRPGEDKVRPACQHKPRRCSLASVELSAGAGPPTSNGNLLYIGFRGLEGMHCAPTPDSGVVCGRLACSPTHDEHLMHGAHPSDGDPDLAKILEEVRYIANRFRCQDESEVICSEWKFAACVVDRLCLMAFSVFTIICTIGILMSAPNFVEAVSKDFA

Regarding `O=C(Nc1cnc(N2CCN3CCC2CC3)nc1)Oc1ccccc1` [Compound A2, [2-(1,4-Diaza-bicyclo[3.2.2]non-4-yl)-pyrimidin-5-yl]-carbamic Acid Phenyl Ester Hydrochloric Acid Salt], the IC50 was less than 0.3 µM.
